Test results: publication PMC3629230, “Permeability Enhancers Dramatically Increase Zanamivir Absolute Bioavailability in Rats: Implications for an Orally Bioavailable Influenza Treatment” (PLoS ONE, 2013)
Read-outs that look alike come from different tables or passages of the source.

Experiments:
[1] = cited from earlier work
Caco-2 cell monolayers = test: Unidirectional (A-to-B) permeability of zanamivir across Caco-2 cell monolayers with and without excipients; assay type: in vitro ADME; details: initial screening, glycerol and Capmul MCM L8, results not shown
Procedure: Caco-2 cells were obtained from American Type Culture Collection (Rockville, MD). Stock cultures were maintained in flasks with DMEM medium supplemented with 10% FBS, 1% non-essential amino acids, 1 mmol/L sodium pyruvate, 100 IU/mL penicillin, and 100 µg/mL streptomycin in a humidified incubator (37°C, 5% CO2). Cells were harvested by trypsinization and seeded at 60,000 cells/cm^2 onto Costar Transwell® 12-well dual-chamber plates with collagen-coated, microporous polycarbonate membranes (1.13 cm^2 insert area, 0.4 µm pore size; Corning Life Sciences, Acton, MA) for permeability studies. The culture medium was changed three times per week.
Caco-2 cell monolayers that had grown for at least 20 days were subjected to batch quality control testing in which permeation rates were measured for atenolol, digoxin, estrone-3-sulfate, lucifer yellow (LY), and propranolol. In addition, the transepithelial electrical resistance (TEER) across each experimental monolayer was tested prior to an experiment.
Unidirectional (A-to-B) permeability of zanamivir was determined at 15 µg/mL in the absence and presence of varying concentrations of excipients in Caco-2 cell monolayers. The assay buffer was Hanks' balanced salt solution (HBSS) supplemented with 10 mM 4-(2-hydroxyethyl)-1-piperazineethanesulfonic acid (HEPES) and 15 mM D-glucose (HBSSg), pH 7.4. The dosing solutions on the apical side (0.5 mL) contained either zanamivir and excipients at each concentration being tested or zanamivir only (n = 4), while the receiver buffer in the bottom well (1.5 mL) was always excipient-free. The Caco-2 cell monolayers were incubated for 120 min in a humidified incubator (37°C, 5% CO2) after dosing in the apical chambers. Aliquots (200 µL each) of receiver buffer were sampled at 60 min, 90 min, and 120 min after dosing, with replacement by the same volume of blank buffer (at 60 min and 90 min). Donors were sampled at 0 and 120 min.
Experimental samples were identically treated.

neuraminidase = details: more potent; cited from earlier work

Row | SMILES | Oral bioavailability ([1]; in vivo, po) | Absolute bioavailability ([1]; in vivo) | Oral bioavailability [1] | other results
1 | CCOC(=O)C1=CC(OC(CC)CC)C(NC(C)=O)C(NC(=N)N)C1 (stereo not shown) [GL4116 ethyl ester] | under 5% |  |  | 
2 | CCC(CC)O[C@@H]1C=C(C(=O)O)C[C@H](N)[C@H]1NC(C)=O [oseltamivir carboxylate] | 2% | under 5% |  | 
3 | CCC(CC)[C@H](NC(C)=O)[C@@H]1[C@H](O)[C@@H](C(=O)O)C[C@H]1N=C(N)N [peramivir] |  |  | under 2% | Drug transport across Caco-2 cell monolayers with enhancers (Caco-2 cell monolayers): substantially increased drug transport
4 | CCOC(=O)C1=C[C@@H](OC(CC)CC)[C@H](NC(C)=O)[C@@H](N)C1 [oseltamivir] | at least 35% | ≥ 35% |  | 
5 | CO[C@@H]([C@@H]1OC(C(=O)O)=C[C@H](NC(=N)N)[C@H]1NC(C)=O)[C@H](O)CO [laninamivir] |  |  | under 2% | 
6 | CCC(CC)OC1C=C(C(=O)O)CC(NC(=N)N)C1NC(C)=O (stereo not shown) [GS4116 carboxylate] | under 5% |  |  | Inhibitor potency relative to oseltamivir carboxylate (neuraminidase): 10 fold
